Laboratory results: patent publication US20240415819A1, “MACROCYCLIC COMPOUNDS AS PROTEASOME SUBUNIT BETA TYPE-5 INHIBITORS” (Lead Discovery Center GmbH, priority 2021, published 2024)

What was measured:
[1] = target: T1, β5 subunit of the human immunoproteasome (IPS) (Homo sapiens, UniProt P28062); assay: β5 inhibition assay, human immunoproteasome (Suc-LLVY-AMC); assay type: biochemical; conditions: IC50 class, Suc-LLVY-AMC substrate
T1 construct: purchased Boston Biochem E-370
Outline: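 β5 activity is read as liberated AMC fluorescence (355/460 nm) after 4 h dark reaction at RT with 22.6 μM Suc-LLVY-AMC, stopped by 1 μM bortezomib. Beforehand, 1 nM human IPS and compound sat 10 min at RT in HEPES pH 7.5 buffer containing NaCl, 0.02% SDS and DTT.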

[2] = target: T2, β5 subunit of the human constitutive proteasome (CPS) (Homo sapiens, UniProt P28074); assay: β5 inhibition assay, human constitutive proteasome (Suc-LLVY-AMC); assay type: biochemical; conditions: IC50 class, Suc-LLVY-AMC substrate
T2 construct: purchased Boston Biochem E-360
Description: The enzymatic activity of the β5 subunit of the human constitutive proteasome (CPS) is analyzed. In another assay, which differs from the assay of the human constitutive proteasome only in using the human immunoproteasome (IPS) the enzymatic activity of the β5 subunit of the human immunoproteasome (IPS) is analyzed. […] Inhibition is indicated as IC50 [nM] (“-”=not measured).

HT-29 cells = assay: CellTiter-Glo luminescent cell viability assay with HT-29 cells (72h incubation); assay type: cell-based, human; conditions: Homo sapiens, HT-29, HT29 cells, read-out: CTG HT29
Outline: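 Viability read as CellTiter-Glo luminescence after 72 h compound exposure, with 10 μM staurosporine and DMSO as control wells. Seeding 400 cells per well, compound added 24 h post-plating; IC50 from curve fitting.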

Row | Compound | IC50 [1] [µM] | IC50 [2] [µM] | IC50 (HT-29 cells) [µM]
1 | Cc1ccc2cc1CNC(=O)[C@H](CCc1ccccc1)NC(=O)[C@@H](NC(=O)C1CCNCC1(F)F)CC(=O)N1CCCC(CCO2)C1 (stereo partly drawn) [Compound 152, 3,3-difluoro-N-((9S,12S)-5^4-methyl-8,11,14-trioxo-9-phenethyl-4-oxa-7,10-diaza-1(3,1)-piperidina-5(1,3)-benzenacyclotetradecaphane-12-yl)piperidine-4-carboxamide] | < 0.1 | < 0.1 | < 0.1
2 | CNCC(=O)N[C@H]1CC(=O)N2CCCC(CCOc3ccc(C)c(c3)CNC(=O)[C@H](CCc3ccccc3)NC1=O)C2 (stereo partly drawn) [Compound 129, N-((9S,12S)-5^4-methyl-8,11,14-trioxo-9-phenethyl-4-oxa-7,10-diaza-1(3,1)-piperidina-5(1,3)-benzenacyclotetradecaphane-12-yl)-2-(methylamino)acetamide] | < 0.1 | < 0.1 | < 0.1
3 | Cc1ccc2cc1CNC(=O)[C@H](Cc1ccccc1)NC(=O)CCC(=O)N1CCCC(CCO2)C1 (stereo partly drawn) [Compound 79, (9S)-9-benzyl-5^4-methyl-4-oxa-7,10-diaza-1(3,1)-piperidina-5(1,3)-benzenacyclotetradecaphane-8,11,14-trione] | < 0.1 | 0.1 to 0.5 | 1 to 5
4 | C=CS(=O)(=O)N[C@H]1CC(=O)N2CCCC(CCOc3ccc(C)c(c3)CNC(=O)[C@H](CCc3ccccc3)NC1=O)C2 (stereo partly drawn) [Compound 180, N-((9S,12S)-5^4-methyl-8,11,14-trioxo-9-phenethyl-4-oxa-7,10-diaza-1(3,1)-piperidina-5(1,3)-benzenacyclotetradecaphane-12-yl)ethenesulfonamide] | < 0.1 | < 0.1 | < 0.1
5 | Cc1ccc2cc1CNC(=O)[C@H](CCc1ccccc1)NC(=O)[C@@H](NC(=O)C1(C)CCNCC1)CC(=O)N1CCCC(CCO2)C1 (stereo partly drawn) [Compound 136, 4-methyl-N-((9S,12S)-5^4-methyl-8,11,14-trioxo-9-phenethyl-4-oxa-7,10-diaza-1(3,1)-piperidina-5(1,3)-benzenacyclotetradecaphane-12-yl)piperidine-4-carboxamide] | < 0.1 | < 0.1 | 0.1 to 0.5
6 | Cc1ccc2cc1CNC(=O)[C@H](CCc1ccccc1)NC(=O)[C@@H](NS(=O)(=O)Cc1ccccc1)CC(=O)N1CCCC(CCO2)C1 (stereo partly drawn) [Compound 216, N-((9S,12S)-5^4-methyl-8,11,14-trioxo-9-phenethyl-4-oxa-7,10-diaza-1(3,1)-piperidina-5(1,3)-benzenacyclotetradecaphane-12-yl)-1-phenylmethanesulfonamide] | < 0.1 | < 0.1 | < 0.1
7 | Cc1ccc2cc1CNC(=O)[C@H](CCc1ccccc1)NC(=O)[C@@H](NC(=O)[C@@H](C)c1ccccc1)CC(=O)N1CCCC(CCO2)C1 (stereo partly drawn) [Compound 81, (2S)-N-((9S,12S)-5^4-methyl-8,11,14-trioxo-9-phenethyl-4-oxa-7,10-diaza-1(3,1)-piperidina-5(1,3)-benzenacyclotetradecaphane-12-yl)-2-phenylpropanamide] | < 0.1 | < 0.1 | < 0.1
8 | CO[C@@H](C(=O)N[C@H]1CC(=O)N2CCCC(CCOc3ccc(C)c(c3)CNC(=O)[C@H](CCc3ccccc3)NC1=O)C2)c1ccccc1 (stereo partly drawn) [Compound 86, (2R)-2-methoxy-N-((9S,12S)-5^4-methyl-8,11,14-trioxo-9-phenethyl-4-oxa-7,10-diaza-1(3,1)-piperidina-5(1,3)-benzenacyclotetradecaphane-12-yl)-2-phenylacetamide] | < 0.1 | < 0.1 | < 0.1
9 | CC(=O)N[C@H]1CC(=O)N2CCCC(CCOc3ccc(C)c(c3)CNC(=O)C(c3cnn(CCCC(=O)O)c3)NC1=O)C2 (stereo partly drawn) [Compound 568, 4-(4-((12S)-12-acetamido-5^4-methyl-8,11,14-trioxo-4-oxa-7,10-diaza-1(3,1)-piperidina-5(1,3)-benzenacyclotetradecaphane-9-yl)-1H-pyrazol-1-yl)butanoic acid] | < 0.1 | < 0.1 | 0.1 to 0.5
10 | Cc1ccc2cc1CNC(=O)[C@H](CCc1ccccc1)NC(=O)[C@@H](NC(=O)CCc1ccccc1-c1ccccc1)CC(=O)N1CCCC(CCO2)C1 (stereo partly drawn) [Compound 177] | < 0.1 | < 0.1 | < 0.1
11 | Cc1ccc2cc1CNC(=O)[C@H](CCc1ccccc1)NC(=O)[C@@H](NC(=O)[C@@H](N)Cc1ccccc1)CC(=O)N1CCCC(CCO2)C1 (stereo partly drawn) [Compound 179, (2R)-2-amino-N-((9S,12S)-5^4-methyl-8,11,14-trioxo-9-phenethyl-4-oxa-7,10-diaza-1(3,1)-piperidina-5(1,3)-benzenacyclotetradecaphane-12-yl)-3-phenylpropanamide-] | < 0.1 | < 0.1 | < 0.1
12 | Cc1ccc2cc1CNC(=O)[C@H](Cc1c[nH]c3ccccc13)NC(=O)CCC(=O)N1CCCC(CCO2)C1 (stereo partly drawn) [Compound 77, (9S)-9-((1H-indol-3-yl)methyl)-5^4-methyl-4-oxa-7,10-diaza-1(3,1)-piperidina-5(1,3)-benzenacyclotetradecaphane-8,11,14-trione] | < 0.1 | < 0.1 | 1 to 5
13 | Cc1ccc2cc1CNC(=O)[C@H](CCc1ccccc1)NC(=O)[C@@H](NC(=O)C(C)(CO)CO)CC(=O)N1CCCC(CCO2)C1 (stereo partly drawn) [Compound 286, 3-hydroxy-2-(hydroxymethyl)-2-methyl-N-((9S,12S)-5^4-methyl-8,11,14-trioxo-9-phenethyl-4-oxa-7,10-diaza-1(3,1)-piperidina-5(1,3)-benzenacyclotetradecaphane-12-yl)propanamide] | < 0.1 | < 0.1 | < 0.1
14 | Cc1ccc2cc1CNC(=O)[C@H](CCc1ccccc1)NC(=O)[C@@H](NC(=O)C1CCC(C(F)(F)F)N1)CC(=O)N1CCCC(CCO2)C1 (stereo partly drawn) [Compound 157, N-((9S,12S)-5^4-methyl-8,11,14-trioxo-9-phenethyl-4-oxa-7,10-diaza-1(3,1)-piperidina-5(1,3)-benzenacyclotetradecaphane-12-yl)-5-(trifluoromethyl)pyrrolidine-2-carboxamide] | < 0.1 | < 0.1 | < 0.1
15 | Cc1ccc2cc1CNC(=O)[C@H](CCc1ccccc1)NC(=O)[C@@H](NS(C)(=O)=O)CC(=O)N1CCCC(CCO2)C1 (stereo partly drawn) [Compound 37, N-((9S,12S)-5^4-methyl-8,11,14-trioxo-9-phenethyl-4-oxa-7,10-diaza-1(3,1)-piperidina-5(1,3)-benzenacyclotetradecaphane-12-yl)methanesulfonamide] | < 0.1 | < 0.1 | < 0.1
16 | Cc1ccc2cc1CNC(=O)[C@H](CCc1ccccc1)NC(=O)[C@@H](NC(=O)Cc1cccc(N)c1)CC(=O)N1CCCC(CCO2)C1 (stereo partly drawn) [Compound 127, 2-(3-aminophenyl)-N-((9S,12S)-5^4-methyl-8,11,14-trioxo-9-phenethyl-4-oxa-7,10-diaza-1(3,1)-piperidina-5(1,3)-benzenacyclotetradecaphane-12-yl)acetamide] | < 0.1 | < 0.1 | < 0.1
17 | CC(=O)N[C@H]1CCC(=O)N2CCOC(CCOc3ccc(C)c(c3)CNC(=O)[C@H](CCc3ccccc3)NC1=O)C2 (stereo partly drawn) [Compound 143, N-((9S,12S)-5^4-methyl-8,11,15-trioxo-9-phenethyl-4-oxa-7,10-diaza-1(2,4)-morpholina-5(1,3)-benzenacyclopentadecaphane-12-yl)acetamide] | < 0.1 | < 0.1 | 0.1 to 0.5
18 | Cc1ccc2cc1CNC(=O)[C@H](CCc1ccccc1)NC(=O)[C@@H](NC(=O)c1n[nH]c3ccccc13)CC(=O)N1CCCC(CCO2)C1 (stereo partly drawn) [Compound 60, N-((9S,12S)-5^4-methyl-8,11,14-trioxo-9-phenethyl-4-oxa-7,10-diaza-1(3,1)-piperidina-5(1,3)-benzenacyclotetradecaphane-12-yl)-1H-indazole-3-carboxamide] | < 0.1 | < 0.1 | < 0.1
19 | CC(=O)N[C@H]1CCCC(=O)N2CC3CC(Oc4ccc(C)c(c4)CNC(=O)[C@H](CCc4ccccc4)NC1=O)C3C2 (stereo partly drawn) [Compound 191, N-((11R,15S,7S,10S)-3^4-methyl-6,9,14-trioxo-7-phenethyl-2-oxa-13,5,8-triaza-1(7,3)-bicyclo[3.2.0]heptana-3(1,3)-benzenacyclotetradecaphane-10-yl)acetamide] | < 0.1 | 0.5 to 1 | 1 to 5
20 | Cc1ccc2cc1CNC(=O)[C@H](CCc1ccccc1)NC(=O)[C@@H](NC(=O)CCc1ccc(-c3ccccc3)cc1)CC(=O)N1CCCC(CCO2)C1 (stereo partly drawn) [Compound 176, 3-([1,1′-biphenyl]-4-yl)-N-((9S,12S)-5^4-methyl-8,11,14-trioxo-9-phenethyl-4-oxa-7,10-diaza-1(3,1)-piperidina-5(1,3)-benzenacyclotetradecaphane-12-yl)propanamide] | < 0.1 | < 0.1 | < 0.1
21 | Cc1ccc2cc1CNC(=O)[C@H](CCc1ccccc1)NC(=O)[C@@H](NC(=O)CCc1cccc(F)c1)CC(=O)N1CCCC(CCO2)C1 (stereo partly drawn) [Compound 25, 3-(3-fluorophenyl)-N-((9S,12S)-5^4-methyl-8,11,14-trioxo-9-phenethyl-4-oxa-7,10-diaza-1(3,1)-piperidina-5(1,3)-benzenacyclotetradecaphane-12-yl)propanamide] | < 0.1 | < 0.1 | < 0.1
